This data set in a line: Solubility of compound 1 in solvent (100 mg blended with 10 ml solvent, supernatant measured by HPLC). It is filed as physicochemical. The conditions noted are these: for solubility thermodynamic: thermodynamic from solid, read-out: Compound 1 concentration; for solubility thermodynamic / Compound 1 concentration: room temperature. The method, then:
After thoroughly blending 100 mg of compound 1 with 10 ml each of 0.05 N hydrochloric acid solution, methanol, ethanol, propylene carbonate, polysorbate 80, polyethylene glycol 400, polyethylene glycol 300, glycerin, dimethylacetamide or propylene glycol at room temperature, the supernatant obtained by centrifugal separation of each mixture was separated off and used as a pharmaceutical solution. Comparative control samples were also prepared by thoroughly dissolving 100 mg of compound 1 with 10 ml each of purified water, sodium acetate buffer solution at pH 4.0 or sodium phosphate buffer solution at pH 6.8 at room temperature, and separating off the supernatant obtained by centrifugal separation. […] All of the samples of the present invention contained dissolved compound 1 at a concentration of 5 mg/ml or greater, which is a sufficient concentration for an injection. On the other hand, all of the comparative control samples contained dissolved compound 1 only at a concentration of 0.2 mg/ml or less, and therefore the concentration necessary for an injection could not be guaranteed.

Values after ≈ are worked out from the molar mass of the structure shown. Where two headings read alike, the source gives them in different places.

This is an account of results in patent publication US6638530B1, “Benzamide formulation with histone deacetylase inhibitor activity” (Schering Aktiengesellschaft, priority 1999, dated 2003).

As to `Nc1ccccc1NC(=O)c1ccc(CNC(=O)OCc2cccnc2)cc1` [Compound 1], the “concentration of dissolved compound 1” value is, setting by setting: (all of the comparative control samples) ≤ 200 µg/mL; (all of the samples of the present invention) ≥ 5000 µg/mL. For the same compound, the solubility thermodynamic runs as follows: (purified water, solvent: water, comparative control sample) 40 µg/mL (≈ 106 µM); (simulated gastric fluid, solvent: 0.05 N hydrochloric acid solution) 14000 µg/mL (≈ 37200 µM); (sodium acetate buffer solution, aqueous buffer, solvent: sodium acetate buffer, pH 4.0, comparative control sample) 200 µg/mL (≈ 531 µM); (sodium phosphate buffer solution, aqueous buffer, solvent: phosphate buffer, pH 6.8, comparative control sample) 40 µg/mL (≈ 106 µM). The “Compound 1 concentration” value reads like this: (solvent: dimethylacetamide) >100 mg/mL; (solvent: ethanol) 5.4 mg/mL; (solvent: glycerin) 10.0 mg/mL; (solvent: methanol) 9.9 mg/mL; (solvent: polyethylene glycol 300) 69.1 mg/mL; (solvent: polyethylene glycol 400) 77.7 mg/mL. Also, the “Compound 1 concentration” value was determined as 29.9 mg/mL (solvent: polysorbate 80), 17.5 mg/mL (solvent: propylene carbonate) and 54.6 mg/mL (solvent: propyleneglycol).
